In PMC11981944 (Nature, 2025):
Where two headings read alike, the source gives them in different places.

Experiments:
SARS-CoV-2 = assay type: cell-based
SARS-CoV-2 B.1.351 = assay type: in vivo; conditions: SCID mice, no ritonavir
SARS-CoV-2 USA-WA1/2020 = test system: SARS-CoV-2 USA-WA1/2020; set-up: species or system Syrian hamsters (Mesocricetus auratus); conditions: hamster, in vivo
[1] = test system: SARS-CoV-2 (strain BavPat1/2020); assay type: cell-based

SMILES | antiviral activity (in words) (SARS-CoV-2) | antiviral activity in vivo (in words) (SARS-CoV-2 B.1.351; 100 mg per kg twice a day) | antiviral activity in vivo (in words) (SARS-CoV-2 B.1.351; three-fold higher dose (300 mg per kg twice a day)) | lung parenchyma histology (in words) (SARS-CoV-2 USA-WA1/2020) | DMVs by TEM (in words) [1]
N#C[C@@]1(c2ccc3c(N)ncnn23)O[C@H](CO)[C@@H](O)[C@H]1O [GS-441524] | micromolar range |  |  |  | 
CC(C)(C)[C@H](NC(=O)C(F)(F)F)C(=O)N1C[C@H]2[C@@H]([C@H]1C(=O)N[C@H](C#N)C[C@@H]1CCNC1=O)C2(C)C [Nirmatrelvir] |  | devoid of antiviral activity | effective | nearly normal | no cells producing DMV clusters, virions or concentric membrane stacks could be detected
